Measurements: patent US4265886A, “Spiroketalins and their applications” (Roecar Holdings (Netherlands Antilles (NV), priority 1978, dated 1981)
Converted amounts (≈) assume the structure as drawn. Read-outs that look alike come from different tables or passages of the source.

How the values were obtained:
[1] = system: erysipelas-induced arthritis (aortic thrombi); test: erysipelas-induced arthritis in the rat: aortic thrombi; format: in vivo, rat (male Wistar); conditions: 3×10 mg/kg per day, 5× per week; for AORTIC THROMBI Present in % of rats: control 90; for AORTIC THROMBI Degree of severity: key 0=No change, 1=Very slight, 2=Slight to medium, 3=Medium to severe, 4=Severe changes, control 2,60 (± 1,35)
Method: (§1) The investigation was carried out according to Schulze et al (17 in Betr. Path., 1975, 154, 1-26 and 27-51). Erysipelas arthritis is reproducible in nearly 100% of the rats given a single subcutaneous injection of E. insidiosa. Erysipelas arthritis always afflicts several joints with the same intensity in both major and minor limb joints, besides the coagulopathy and the pathological changes produced in the cardio-vascular system. Proliferating processes occur after 3 months in all surviving animals subjected to experimental erysipelas arthritis.
(§2) In order to test the spiroketalins of this invention the following parameters of the erysepilas arthritis model were used to evaluate their activities:
Fibrin-rich thrombi develop on aorta intima between the 6th and 11th day. The largest spread extended area can be observed around the 8th day.
(§3) Male Wistar rats between 155-185 g were used for these trials. The animals, kept in single cages, received a standard rat diet (Ssniff R) and water ad libitum. Room temperature was kept at 22° C., and the relative humidity varied between 50-60%. Daily illumination lasted for 12 hours. The animals had been acclimatized for 10 days prior to the commencement of the investigation.
(§4) An erysopelothrix insidiosa serotype B-strain T28 was used to challenge the animals and a single 2 ml dose (ca 100-200 million germs) was administered subcutaneously. The examined spiroketalins were suspended in sterile physiological saline and administered at the rate of 3×10 mg/kg per day. Treatment continued from the day of challenge, either to the end of the trial or the death of an animal, at the rate of 5×per week.
The parameters for aorta thrombi have been evaluated according to the following key originally described by Schulz et al. Beitrag. Path., 154, 1-26 and 27-51, 1975.
KEY FOR CLINICAL AORTA THROMBI FINDINGS
2=Slight to medium changes
3=Medium to severe changes

[2] = system: erysipelas-induced arthritis (corneal lesions); test: erysipelas-induced arthritis in the rat: corneal lesions (opaquacy); format: in vivo, rat (male Wistar); conditions: for CORNEAL LESIONS Degree of severity: 3×10 mg/kg per day, 5× per week, control 2,34; for CORNEAL LESIONS Present in % of rats, day 1: control 0; for CORNEAL LESIONS Present in % of rats, day 6 / CORNEAL LESIONS Present in % of rats, day 8 / CORNEAL LESIONS Present in % of rats, day 12 / CORNEAL LESIONS Present in % of rats, day 15 / CORNEAL LESIONS Present in % of rats, day 19 / CORNEAL LESIONS Present in % of rats, day 20: control 100
Method: as §1, §2
Inflammation opaquacy appears in the cornea around the 8th day.
as §3, §4

[3] = system: yeast-induced hind paw oedema; test: yeast-induced acute paw oedema in rats; format: in vivo, rat; conditions: 500-1000 mg/kg orally or 50-100 mg/kg intraperitoneally, 24 hours before 2% yeast suspension
Method: The oral effectiveness of an anti-inflammatory agent is readily shown by administering it to animals (e.g. rats) either orally or parenterally before one of their hind paws is injected with a solution or suspension of an inflammation inducing substance such as kaolin, egg white, formaldehyde, carageenin or yeast. […] Distinct reductions in the acute oedema formation of between 10-40% were observed depending on the dose and route of administration. In order to achieve such reduction with the glucosides of diosgenin, hecogenin and tigogenin doses of 500-1000 mg/kg body mass orally or 50-100 mg/kg intraperitoneally had been administered, 24 hours before the animals were challenged with fresh 2% yeast suspension in physiological saline.

Sprague-Dawley rats [4] = test: 100 day feeding study, 0,1% in standard laboratory chow; format: in vivo, rat (male Sprague-Dawley); conditions: for mortality: 100 day observation period
Excerpt: (b) Standard laboratory chow was thoroughly mixed with 0,1% diosgenyl glucoside or hecogenyl glucoside and the mixtures were fed to groups of 20 young male Sprague-Dawley rats weighing approximately 150 g. […] Ten rats from each group were autopsied and the organs and some body tissues examined by macroscopic and microscopic techniques.

haemolysis = conditions: cited from earlier work
Sprague-Dawley rats [5] = test: single oral dose animal toxicity, 14 day observation; format: in vivo, rat (male Sprague-Dawley); conditions: single oral doses of 125,0; 312,5; 625,0 and 1250 mg/kg
Method: Individually housed groups of ten male Sprague-Dawley rats were treated orally with single doses of hecogenin 3-β-D-glucoside or diosgenin 3β-D-glucoside. The poorly water soluble test substances were made up in an aqueous Tylose^R dispersion for homogeneity.
A suitable concentration which allowed the administration of the relevant dose at the rate of 1,0 ml/100 g body weight was prepared immediately before use. Doses ranging from 125 mg/kg to 1250 mg/kg of the agents were tested. The observation period was 14 days after which the animals were sacrificed and a macroscopic examination of some tissues was carried out. Food and water was offered ad libitum.

physchem = conditions: water
[6] = system: rats, rabbits and chickens; conditions: cited from earlier work
[7] = rats, rabbits and chickens; cited from earlier work

SMILES | AORTIC THROMBI Present in % of rats [1] | AORTIC THROMBI Degree of severity [1] | CORNEAL LESIONS Degree of severity [2] | CORNEAL LESIONS Present in % of rats, day 1 [2] | CORNEAL LESIONS Present in % of rats, day 6 [2] | CORNEAL LESIONS Present in % of rats, day 8 [2] | CORNEAL LESIONS Present in % of rats, day 12 [2] | CORNEAL LESIONS Present in % of rats, day 15 [2] | CORNEAL LESIONS Present in % of rats, day 19 [2] | CORNEAL LESIONS Present in % of rats, day 20 [2] | reduction in acute oedema formation [3] | mortality (Sprague-Dawley rats [4]; 0,1% in chow) | also measured
C[C@@H]1CC[C@@]2(OC1)O[C@H]1C[C@H]3[C@@H]4CC=C5C[C@@H](O[C@@H]6O[C@H](CO)[C@@H](O)[C@H](O)[C@H]6O)CC[C@]5(C)[C@H]4CC[C@]3(C)[C@H]1[C@@H]2C [Diosgenyl Glucoside, diosgenyl β-D-glucoside] | 44% | 1,33 (± 1,66) | 1,05 | 0% | 85,7% | 100% | 100% | 50% | 25% | 0% | 10-40% | No mortality occurred | drug-related pathological changes (Sprague-Dawley rats [4]; rat, in vivo): No drug-related pathological changes were detected in any tissues; in vitro haemolytic effects (haemolysis; in vitro, reference (6)): without showing the usual in vitro haemolytic effects; solubility (water solubility; 25° C.): ~5 µg/mL (≈ 8.67 µM); solubility (water solubility; room temperature, colloidal solution): 5 µg/mL (≈ 8.67 µM)
C[C@@H]1CC[C@@]2(OC1)O[C@H]1C[C@H]3[C@@H]4CC[C@H]5C[C@@H](O[C@@H]6O[C@H](CO)[C@@H](O)[C@H](O)[C@H]6O)CC[C@]5(C)[C@H]4CC(=O)[C@]3(C)[C@H]1[C@@H]2C [Hecogenyl Glucoside, hecogenyl β-D-glucoside] | 50% | 1,38 (± 1,51) | 0,89 | 0% | 87,5% | 100% | 100% | 100% | 20% | 0% | 10-40% | No mortality occurred | tolerability (Sprague-Dawley rats [5]): well tolerated; drug-related pathological changes (Sprague-Dawley rats [4]; 0,1% in chow, autopsy, macroscopic and microscopic): No drug-related pathological changes were detected in any tissues; solubility (physchem): ~5 µg/mL (≈ 8.43 µM); in vitro haemolytic effects (haemolysis): without showing the usual in vitro haemolytic effects
CC[C@H](CC[C@@H](C)[C@H]1CC[C@H]2[C@@H]3CC=C4C[C@@H](O[C@@H]5O[C@H](CO)[C@@H](O)[C@H](O)[C@H]5O)CC[C@]4(C)[C@H]3CC[C@]12C)C(C)C [Sitosteryl-β-D-Glucoside, reference compound] | 70% | 2,00 (± 1,63) | 1,20 | 20% | 90% | 100% | 100% | 17% | 25% | 0% |  |  | 
C[C@@H]1CC[C@@]2(OC1)O[C@H]1C[C@H]3[C@@H]4CC[C@H]5C[C@@H](O[C@@H]6O[C@H](CO)[C@@H](O)[C@H](O)[C@H]6O)CC[C@]5(C)[C@H]4CC[C@]3(C)[C@H]1[C@@H]2C [Tigogenyl Glucoside, tigogenyl β-D-glucoside] |  |  |  |  |  |  |  |  |  |  | 10-40% |  | 
C[C@@H]1CC[C@@]2(OC1)O[C@H]1C[C@H]3[C@@H]4CC=C5C[C@@H](O)CC[C@]5(C)[C@H]4CC[C@]3(C)[C@H]1[C@@H]2C [diosgenin] |  |  |  |  |  |  |  |  |  |  |  |  | toxicity [6]: non-toxic; serum cholesterol levels [7]: lowers the serum cholesterol levels
